Columns and labels:
Assay type in all cases: in vivo
[1] = test system: Bactrocera oleae (olive fly); experiment: Uptake of alkylated porphyrins by flies fed porphyrin-containing bait; settings: B. oleae
Method: (§1) Porphyrins: • a) meso[tri(N-methyl-pyridyl), mono(N-dodecyl-pyridyl)]porphine (abbr.: C12) • b) meso[tri(N-methyl-pyridyl), mono(N-tetradecyl-pyridyl)]porphine (abbr.: C14) • c) meso[tri(N-methyl-pyridyl), mono(N-octadecyl-pyridyl)]porphine (abbr.: C18) Bait: Aqueous solution containing 10% sucrose and 1% autolysed yeast Flies: • a) Ceratitis capitata (fruit fly) age: 1 week; weight: 5-6 mg • b) Bactrocera oleae (olive fly) age: 10 days; weight: 4-4.5 mg • c) Stomoxis calcitrans (stable fly) age: 10 days; weight: 12 mg Irradiation: • a) High pressure halogen lamp, equipped with infrared and UV filters, emission 360-850 nm, operated at intensities in the 760-2,000 μE s^−1m^−2 range • b) Sunlight, mid June at Padua latitude, average intensity of […] μE s^−1m^−2 with minimum and maximum values of 950 and, respectively, 1,380 μE s^−1m^−2
(§2) An appropriate number of flies (50 flies per each experiment) was caged in 115×55×70 mm Plexiglas cages with several holes (ø=0.5 mm) and starved for 36 h. Then, depending on the protocol to be adopted for each specific experiment, the flies were fed with the bait (10% sucrose and 1% autolysed yeast in neutral aqueous solution), which was either porphyrin-free or added with a predetermined concentration of the porphyrin. These flies were then used in the various experimental sessions.
(§3) At predetermined times, the flies were sacrificed by freezing; the dead flies were then homogenized with a Polytron in 10 ml of a 2% aqueous solution of sodium dodecylsulphate (SDS). The suspension was centrifuged for 10 min at 2,000 rpm, the pellet was discarded and known aliquots of the supernatant were diluted by means of a chloroform/methanol binary mixture (1/2, v/v). The porphyrin concentration was measured by reading the fluorescence emitted at wavelengths above 630 nm and interpolating the emission intensity with a calibration plot obtained with known amounts of the porphyrin. The results were expressed as nanomoles of porphyrin recovered per fly.

[2] = test system: Ceratitis capitata (fruit fly); experiment: as above; settings: C. capitata
Method: as §1, §2, §3

[3] = test system: Stomoxis calcitrans (stable fly); experiment: as above; settings: S. calcitrans
Method: as §1, §2, §3

Ceratitis capitata flies [4] = experiment: Insecticidal action in the dark: fly survival after porphyrin bait; settings: dark, fed 24 h, survival 12 h after change to porphyrin-free bait
Method: For comparison, data obtained with two conventional porphyrins (as those described in WO 97/29637) offered to the insects for 24 h at a 3.0 and 8.1 μmolar concentration in the same bait are also shown. In all cases, the survival was determined 12 hours after changing food supply from a porphyrin-containing to a porphyrin-free bait. […] These flies were then used in the various experimental sessions. […] The number of survivors was evaluated 12 h after switching from administration of a porphyrin-containing bait to a porphyrin-free bait. In none of the experiments was mortality or any apparent toxic effect observed in control flies (flies not fed with porphyrin, see survival at 0 μM porphyrin concentration).

Bactrocera oleae flies = experiment: as above; settings: fed 24 h, survival 12 h after change to porphyrin-free bait
Method: (§4) These flies were then used in the various experimental sessions. […] The number of survivors was evaluated 12 h after switching from administration of a porphyrin-containing bait to a porphyrin-free bait. In none of the experiments was mortality or any apparent toxic effect observed in control flies (flies not fed with porphyrin, see survival at 0 μM porphyrin concentration).

[5] = test system: Stomoxis calcitrans flies; experiment: as above; settings: fed 24 h, survival 12 h after change to porphyrin-free bait
Method: as §4

Ceratitis capitata flies [6] = experiment: Photoinsecticidal action: fly survival after bait and visible light irradiation (artificial lamp); settings: survival 10 h after irradiation
Method: as §1
The irradiations were performed for 1 h, then the flies were kept in dim light for monitoring the survival. Control flies were irradiated under identical conditions after feeding with a porphyrin-free bait.
The irradiations were performed for 1 h at a fluence-rate of 1220 μE s^−1m^−2. The survival was evaluated 10 h after the end of irradiation. […] The porphyrins are abbreviated as following: HP: haematoporphyrin; C1: meso-tetra(N-methyl-pyridyl)porphine.
The survival was evaluated 10 h after the end of irradiation.
An appropriate number of flies (50 flies per each experiment) was caged in 115×55×70 mm Plexiglas cages with several holes (ø=0.5 mm) and starved for 36 h. Then, depending on the protocol to be adopted for each specific experiment, the flies were fed with the bait (10% sucrose and 1% autolysed yeast in neutral aqueous solution), which was either porphyrin-free or added with a predetermined concentration of the porphyrin. These flies were then used in the various experimental sessions. […]

Ceratitis capitata flies [7] = experiment: Photoinsecticidal action: fly survival after bait and sunlight irradiation; settings: 3 μM in bait, 12 h after feeding, survival 1 h after irradiation
Method: as §1
The survival was evaluated 1 h after the end of irradiation.
as §2

[8] = exposure time to bait 3 h, porphyrin in bait 1.24 μM
[9] = exposure time to bait 12 h, porphyrin in bait 1.24 μM
[10] = exposure time to bait 24 h, porphyrin in bait 1.24 μM
[11] = porphyrin concentration in bait 0.75 (μmoles), feeding 24 h
[12] = porphyrin concentration in bait 1.25 (μmoles), feeding 24 h
[13] = porphyrin concentration in bait 2.10 (μmoles), feeding 24 h
[14] = porphyrin concentration in bait 3.50 (μmoles), feeding 24 h
[15] = porphyrin concentration in bait 6.00 (μmoles), feeding 24 h

CCCCCCCCCCCC[n+]1ccc(-c2c3nc(c(-c4cc[n+](C)cc4)c4ccc([nH]4)c(-c4cc[n+](C)cc4)c4nc(c(-c5cc[n+](C)cc5)c5ccc2[nH]5)C=C4)C=C3)cc1 [C12, meso[tri(N-methyl-pyridyl), mono(N-dodecyl-pyridyl)]porphine]
Recoveries (nmoles of porphyrin per fly) [1, 8]: 0.8 nmoles of porphyrin per fly | Recoveries (nmoles of porphyrin per fly) [1, 9]: 2.6 nmoles of porphyrin per fly | Recoveries (nmoles of porphyrin per fly) [1, 10]: 3.2 nmoles of porphyrin per fly | Recoveries (nmoles of porphyrin per fly) [1, 11]: 2.7 nmoles of porphyrin per fly | Recoveries (nmoles of porphyrin per fly) [1, 12]: 3.2 nmoles of porphyrin per fly | Recoveries (nmoles of porphyrin per fly) [1, 13]: 6.5 nmoles of porphyrin per fly | Recoveries (nmoles of porphyrin per fly) [1, 14]: 9.3 nmoles of porphyrin per fly | Recoveries (nmoles of porphyrin per fly) [1, 15]: 10.6 nmoles of porphyrin per fly | Recoveries (nmoles of porphyrin per fly) [2, 8]: 1.2 nmoles of porphyrin per fly | Recoveries (nmoles of porphyrin per fly) [2, 9]: 3.9 nmoles of porphyrin per fly | Recoveries (nmoles of porphyrin per fly) [2, 10]: 4.1 nmoles of porphyrin per fly | Recoveries (nmoles of porphyrin per fly) [2, 11]: 2.9 nmoles of porphyrin per fly | Recoveries (nmoles of porphyrin per fly) [2, 12]: 4.1 nmoles of porphyrin per fly | Recoveries (nmoles of porphyrin per fly) [2, 13]: 7.3 nmoles of porphyrin per fly | Recoveries (nmoles of porphyrin per fly) [2, 14]: 9.1 nmoles of porphyrin per fly | Recoveries (nmoles of porphyrin per fly) [2, 15]: 12.5 nmoles of porphyrin per fly | Recoveries (nmoles of porphyrin per fly) [3, 8]: 1.4 nmoles of porphyrin per fly | Recoveries (nmoles of porphyrin per fly) [3, 9]: 3.2 nmoles of porphyrin per fly | Recoveries (nmoles of porphyrin per fly) [3, 10]: 3.7 nmoles of porphyrin per fly | Recoveries (nmoles of porphyrin per fly) [3, 11]: 2.5 nmoles of porphyrin per fly | Recoveries (nmoles of porphyrin per fly) [3, 12]: 3.7 nmoles of porphyrin per fly | Recoveries (nmoles of porphyrin per fly) [3, 13]: 6.0 nmoles of porphyrin per fly | Recoveries (nmoles of porphyrin per fly) [3, 14]: 9.0 nmoles of porphyrin per fly | Recoveries (nmoles of porphyrin per fly) [3, 15]: 9.7 nmoles of porphyrin per fly | Survival (% of control untreated flies) (Ceratitis capitata flies [4]; 0.75 μM in bait): 100 % of control untreated flies | Survival (% of control untreated flies) (Ceratitis capitata flies [4]; 1.25 μM in bait): 73 % of control untreated flies | Survival (% of control untreated flies) (Ceratitis capitata flies [4]; 2.10 μM in bait): 58 % of control untreated flies | Survival (% of control untreated flies) (Ceratitis capitata flies [4]; 3.00 μM in bait): 42 % of control untreated flies | Survival (% of control untreated flies) (Ceratitis capitata flies [4]; 5.00 μM in bait): 38 % of control untreated flies | Survival (% of control untreated flies) (Ceratitis capitata flies [4]; 8.10 μM in bait): 35 % of control untreated flies | Survival (% of control untreated flies) (Bactrocera oleae flies; 0.75 μM in bait): 100 % of control untreated flies | Survival (% of control untreated flies) (Bactrocera oleae flies; 1.25 μM in bait): 100 % of control untreated flies | Survival (% of control untreated flies) (Bactrocera oleae flies; 2.10 μM in bait): 85 % of control untreated flies | Survival (% of control untreated flies) (Bactrocera oleae flies; 3.00 μM in bait): 72 % of control untreated flies | Survival (% of control untreated flies) (Bactrocera oleae flies; 5.00 μM in bait): 58 % of control untreated flies | Survival (% of control untreated flies) (Bactrocera oleae flies; 8.10 μM in bait): 51 % of control untreated flies | Survival (% of control untreated flies) ([5]; 0.75 μM in bait): 100 % of control untreated flies | Survival (% of control untreated flies) ([5]; 1.25 μM in bait): 82 % of control untreated flies | Survival (% of control untreated flies) ([5]; 2.10 μM in bait): 64 % of control untreated flies | Survival (% of control untreated flies) ([5]; 3.00 μM in bait): 47 % of control untreated flies | Survival (% of control untreated flies) ([5]; 5.00 μM in bait): 29 % of control untreated flies | Survival (% of control untreated flies) ([5]; 8.10 μM in bait): 16 % of control untreated flies | Survival (% of control untreated flies) (Ceratitis capitata flies [6]; 3 μM in bait 24 h, time interval feeding-irradiation 0 h, irradiation 1 h at 1220 μE s^−1m^−2): 4 % of control untreated flies | Survival (% of control untreated flies) (Ceratitis capitata flies [6]; 3 μM in bait 24 h, time interval feeding-irradiation 12 h, irradiation 1 h at 1220 μE s^−1m^−2): 8 % of control untreated flies | Survival (% of control untreated flies) (Ceratitis capitata flies [6]; 3 μM in bait 24 h, time interval feeding-irradiation 24 h, irradiation 1 h at 1220 μE s^−1m^−2): 23 % of control untreated flies | Survival (% of control untreated flies) (Ceratitis capitata flies [6]; 3 μM in bait 24 h, time interval feeding-irradiation 48 h, irradiation 1 h at 1220 μE s^−1m^−2): 37 % of control untreated flies | Survival (% of control untreated flies) (Ceratitis capitata flies [6]; 3 μM in bait, fluence-rate 760 μE s^−1m^−2, irradiated 24 h after feeding (title)): 13 % of control untreated flies | Survival (% of control untreated flies) (Ceratitis capitata flies [6]; 3 μM in bait, fluence-rate 1220 μE s^−1m^−2, irradiated 24 h after feeding (title)): 4 % of control untreated flies | Survival (% of control untreated flies) (Ceratitis capitata flies [6]; 3 μM in bait, fluence-rate 1500 μE s^−1m^−2, irradiated 24 h after feeding (title)): 2 % of control untreated flies | Survival (% of control untreated flies) (Ceratitis capitata flies [6]; 3 μM in bait, fluence-rate 2000 μE s^−1m^−2, irradiated 24 h after feeding (title)): 0 % of control untreated flies | Survival (% of control untreated flies) (Ceratitis capitata flies [7]; sunlight (average 1150 μE s^−1m^−2) 15 min): 33 % of control untreated flies | Survival (% of control untreated flies) (Ceratitis capitata flies [7]; sunlight (average 1150 μE s^−1m^−2) 30 min): 17 % of control untreated flies | Survival (% of control untreated flies) (Ceratitis capitata flies [7]; sunlight (average 1150 μE s^−1m^−2) 45 min): 10 % of control untreated flies | Survival (% of control untreated flies) (Ceratitis capitata flies [7]; sunlight (average 1150 μE s^−1m^−2) 60 min): 2 % of control untreated flies

Source: US7384927B2, “Alkylated porphyrins as pesticides acting both in the presence and absence of light” (priority 2003, dated 2008)
